Converted amounts (≈) assume the structure as drawn. The source made the active and inactive calls. The calls are words filed in the database; no cut-off is given here.
How the values were obtained:
Peritoneal macrophage [1] = assay: Antiinflammatory activity against LPS-stimulated mouse peritoneal macrophage assessed as IL-1beta level at 2 uM treated for 3 hrs followed by ATP addition measured after 30 mins by ELISA method relative to control; assay type: functional; details: time 3.5 hrs
Peritoneal macrophage [2] = assay: Cytotoxicity against mouse peritoneal macrophages at 4 uM incubated for 3.5 hrs by MTT assay; assay type: toxicity, cell-based
Peritoneal macrophage [3] = assay: Antiinflammatory activity against LPS-stimulated mouse peritoneal macrophage assessed as IL-6 level at 2 uM treated for 3 hrs followed by ATP addition measured after 30 mins by ELISA method; assay type: functional, cell-based; details: time 3.5 hrs
Peritoneal macrophage [4] = assay: Antiinflammatory activity against LPS-stimulated mouse peritoneal macrophage assessed as TNF-alpha level at 2 uM treated for 3 hrs followed by ATP addition measured after 30 mins by ELISA method; assay type: functional, cell-based; details: time 3.5 hrs
Peritoneal macrophage [5] = assay: Antiinflammatory activity against LPS-stimulated mouse peritoneal macrophage assessed as TNF-alpha level at 2 uM treated for 3 hrs followed by ATP addition measured after 30 mins by ELISA method relative to control; assay type: functional; details: time 3.5 hrs
Peritoneal macrophage [6] = assay: Antiinflammatory activity against LPS-stimulated mouse peritoneal macrophage assessed as IL-6 level at 2 uM treated for 3 hrs followed by ATP addition measured after 30 mins by ELISA method relative to control; assay type: functional; details: time 3.5 hrs
Peritoneal macrophage [7] = assay: Antiinflammatory activity against LPS-stimulated mouse peritoneal macrophage assessed as inhibition of IL-1beta secretion treated for 3 hrs followed by ATP addition measured after 30 mins by ELISA method; assay type: functional, cell-based
[8] = Aqueous solubility of compound incubated for 24 hrs by HPLC analysis; assay type: physicochemical; details: buffer
[9] = Metabolic stability in human liver microsomes assessed as intrinsic clearance at 20 uM measured upto 120 mins in presence of NADPH by LC-MS/MS analysis; assay type: ADME, Microsome; details: read-out: CLH
[10] = Metabolic stability in mouse liver microsomes assessed as half life at 20 uM measured upto 120 mins in presence of NADPH by LC-MS/MS analysis; assay type: ADME, Microsome
[11] = Metabolic stability in mouse liver microsomes assessed as intrinsic clearance at 20 uM measured upto 120 mins in presence of NADPH by LC-MS/MS analysis; assay type: ADME, Microsome; details: read-out: CLH
[12] = Metabolic stability in human liver microsomes assessed as half life at 20 uM measured upto 120 mins in presence of NADPH by LC-MS/MS analysis; assay type: ADME, Microsome

| Compound | IC50 (Peritoneal macrophage [7]) [nM] | solubility [8] [µg/mL] | microsomal CLint at 20 µM [9] [µL/min/mg] | half-life at 20 µM [10] [h] | microsomal CLint at 20 µM [11] [µL/min/mg] | half-life at 20 µM [12] [h] | Activity (Peritoneal macrophage [1]) [%] | Activity (Peritoneal macrophage [2]) | Activity (Peritoneal macrophage [3]) | Activity (Peritoneal macrophage [4]) | Activity (Peritoneal macrophage [5]) [%] | Activity (Peritoneal macrophage [6]) [%] |
| --- | --- | --- | --- | --- | --- | --- | --- | --- | --- | --- | --- | --- |
| Cc1cccc2c3c(ccc12)-c1oc2c(c1C(=O)C3=O)CCN(CCN1CCCCC1)C2 | – | – | – | – | – | – | 41 | Non-Toxic | inactive | inactive | – | – |
| Cc1cccc2c3c(ccc12)-c1oc2c(c1C(=O)C3=O)CCN(CCCN1CCCC1)C2 | – | – | – | – | – | – | 94 | Non-Toxic | – | – | 13 | 31 |
| Cc1cccc2c3c(ccc12)-c1oc2c(c1C(=O)C3=O)CCN(CCN1CCCC1)C2 | – | – | – | – | – | – | 73 | Non-Toxic | inactive | inactive | – | – |
| Cc1cccc2c3c(ccc12)-c1oc2c(c1C(=O)C3=O)CCN(CCCN(C)C)C2 | – | – | – | – | – | – | 95 | Non-Toxic | – | – | 19 | 8 |
| CCN1CCc2c(oc3c2C(=O)C(=O)c2c-3ccc3c(C)cccc23)C1 | – | – | – | – | – | – | 67 | Non-Toxic | inactive | inactive | – | – |
| Cc1cccc2c3c(ccc12)-c1oc2c(c1C(=O)C3=O)CCN(CCN(C)C)C2 | – | – | – | – | – | – | 88 | Non-Toxic | – | – | 20 | 3 |

Now from value to compound, other results behind:

| IC50 (Peritoneal macrophage [7]) [nM] | solubility [8] [µg/mL] | microsomal CLint at 20 µM [9] [µL/min/mg] | half-life at 20 µM [10] [h] | microsomal CLint at 20 µM [11] [µL/min/mg] | half-life at 20 µM [12] [h] | Compound | Activity (Peritoneal macrophage [1]) [%] | Activity (Peritoneal macrophage [2]) | Activity (Peritoneal macrophage [3]) | Activity (Peritoneal macrophage [4]) | Activity (Peritoneal macrophage [5]) [%] | Activity (Peritoneal macrophage [6]) [%] |
| --- | --- | --- | --- | --- | --- | --- | --- | --- | --- | --- | --- | --- |
| 368 | – | – | – | – | – | Cc1cccc2c3c(ccc12)-c1oc2c(c1C(=O)C3=O)CCN(CC(=O)N1CCOCC1)C2 | 96 | Non-Toxic | – | – | 36 | 24 |
| 2920 | – | – | – | – | – | Cc1cccc2c3c(ccc12)-c1oc2c(c1C(=O)C3=O)CCN([C@@H](C)C(=O)N1CCOCC1)C2 | 98 | Non-Toxic | inactive | – | 52 | – |
| – | 2.45 | – | – | – | – | Cc1cccc2c3c(ccc12)-c1oc2c(c1C(=O)C3=O)CCN(CCO)C2.Cl | 99 | Non-Toxic | – | – | 22 | – |
| – | 11.89 | – | – | – | – | Cc1cccc2c3c(ccc12)-c1oc2c(c1C(=O)C3=O)CCN(CCCN1CCOCC1)C2.Cl | 91 | Non-Toxic | – | – | 24 | 12 |
| 65 | 0.45 (≈ 1.07 µM) | 6.2 | 6.08 | 3.8 | 3.73 | Cc1cccc2c3c(ccc12)-c1oc2c(c1C(=O)C3=O)CCN([C@H](CO)CCCO)C2 | 99 | Non-Toxic | – | – | 41 | 10 |
| 114 | 0.34 (≈ 0.941 µM) | 2 | 3.03 | 7.64 | 11.6 | Cc1cccc2c3c(ccc12)-c1oc2c(c1C(=O)C3=O)CCN(CCO)C2 | 96 | Non-Toxic | – | – | 40 | 7 |

From ChEMBL document CHEMBL5380810, “Scaffold Hybrid of the Natural Product Tanshinone I with Piperidine for the Discovery of a Potent NLRP3 Inflammasome Inhibitor” (J Med Chem, 2023)
